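Exposure lasted 48 hours, with cells grown in 96-well plates and compounds tested at five concentrations. GI50: concentration for 50% inhibition of growth. TGI marks complete inhibition of growth.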
How the values were obtained:
Assay in all cases: DTP human tumour cell line panel, 48 h
[1] = test system: A549 NSCLC
[2] = test system: HOP-92 NSCLC
[3] = test system: 786-0 renal
[4] = test system: A498 renal
[5] = test system: HL-60(TB) leukemia
[6] = test system: M14 melanoma
[7] = test system: NCI-H522 lung
[8] = test system: ACHN renal
[9] = test system: RXF 393 renal
[10] = test system: SF-268 CNS
[11] = test system: MALME-3M melanoma
[12] = test system: COLO 205 colon
[13] = test system: OVCAR-8 ovarian
[14] = test system: DU-145 prostate
[15] = test system: IGROV1 ovarian
[16] = test system: NCI-H460 lung
[17] = test system: OVCAR-4 ovarian
[18] = test system: OVCAR-5 ovarian
[19] = test system: NCI/ADR-RES ovarian
[20] = test system: SN12C renal
[21] = test system: UO-31 renal
[22] = test system: MDA-MB-231 breast
[23] = test system: UACC-257 melanoma
[24] = test system: UACC-62 melanoma
[25] = test system: KM12 colon
[26] = test system: SK-MEL-28 melanoma
[27] = test system: HCC-2998 colon
[28] = test system: HS 578T breast
[29] = test system: U251 CNS
[30] = test system: SR leukemia
[31] = test system: BT-549 breast
[32] = test system: SF-539 CNS
[33] = test system: OVCAR-3 ovarian
[34] = test system: PC-3 prostate
[35] = test system: LOX IMVI melanoma
[36] = test system: RPMI-8226 leukemia
[37] = test system: HT29 colon
[38] = test system: SNB-19 CNS
[39] = test system: CCRF-CEM leukemia
[40] = test system: MOLT-4 leukemia
[41] = test system: MCF7 breast
[42] = test system: K-562 leukemia
[43] = test system: SK-MEL-2 melanoma
[44] = test system: MDA-MB-435
[45] = test system: T-47D breast
[46] = test system: NCI-H23 lung
[47] = test system: SK-MEL-5 melanoma
[48] = test system: CAKI-1 renal
[49] = test system: TK-10 renal
[50] = test system: NCI-H226 lung
[51] = test system: HCT-15 colon
[52] = test system: SW-620 colon
[53] = test system: HOP-62 NSCLC
[54] = test system: SF-295 CNS
[55] = test system: HCT-116 colon
[56] = test system: SK-OV-3 ovarian
[57] = test system: SNB-75 CNS

`COc1cc(C(=O)n2nc(N3CCN(C)CC3)c3cc(N)ccc32)cc(OC)c1OC` was tested, and the GI50 [1] was 6.89 µM, the TGI [1] was > 100 µM and the GI50 [2] was 6.4 µM. For the same compound, the TGI [2] was > 100 µM, the GI50 [3] was 4.42 µM and the TGI [3] was > 100 µM. For the same compound, the GI50 [4] was 2.82 µM, the TGI [4] was 7.12 µM and the GI50 [5] was 2.16 µM. For the same compound, the TGI [5] was 5.14 µM, the GI50 [6] was 3.74 µM and the TGI [6] was 16.7 µM. The GI50 [7] was 2.01 µM, the TGI [7] was 8.87 µM and the GI50 [8] was 4.2 µM. The TGI [8] was > 100 µM, the GI50 [9] was 3.04 µM and the TGI [9] was > 100 µM. The GI50 [10] was 4.19 µM, the TGI [10] was 88.9 µM and the GI50 [11] was 5.12 µM. The TGI [11] was 50.3 µM, the GI50 [12] was 15.5 µM and the TGI [12] was 37.3 µM. The GI50 [13] was 4.77 µM, the TGI [13] was > 100 µM and the GI50 [14] was 3.99 µM. For the same compound, the TGI [14] was > 100 µM, the GI50 [15] was 4.88 µM and the TGI [15] was > 100 µM. The GI50 [16] was 4.34 µM, the TGI [16] was > 100 µM and the GI50 [17] was 4.17 µM. The TGI [17] was > 100 µM, the GI50 [18] was 8.18 µM and the TGI [18] was > 100 µM. The GI50 [19] was 4.2 µM, the TGI [19] was > 100 µM and the GI50 [20] was 4.42 µM. The TGI [20] was > 100 µM, the GI50 [21] was 2.87 µM and the TGI [21] was 18.1 µM. It also gave a GI50 [22] of 2.92 µM, a TGI [22] of 21.6 µM and a GI50 [23] of 28.5 µM. The TGI [23] was > 100 µM, the GI50 [24] was 2.78 µM and the TGI [24] was 17.7 µM. For the same compound, the GI50 [25] was 3.51 µM, the TGI [25] was 27.2 µM and the GI50 [26] was 14 µM. It also gave a TGI [26] of 99.4 µM, a GI50 [27] of 3.6 µM and a TGI [27] of 14.3 µM. For the same compound, the GI50 [28] was 12.8 µM, the TGI [28] was > 100 µM and the GI50 [29] was 3.65 µM. For the same compound, the TGI [29] was 25.8 µM, the GI50 [30] was 3.64 µM and the TGI [30] was 53.3 µM. For the same compound, the GI50 [31] was 4.32 µM, the TGI [31] was > 100 µM and the GI50 [32] was 2.86 µM. It also gave a TGI [32] of 10.1 µM, a GI50 [33] of 2.39 µM and a TGI [33] of 5.62 µM. The GI50 [34] was 17.7 µM, the TGI [34] was > 100 µM and the GI50 [35] was 4.23 µM. It also gave a TGI [35] of 17.1 µM, a GI50 [36] of 4.79 µM and a TGI [36] of 34.8 µM. The GI50 [37] was 3.65 µM, the TGI [37] was 14.9 µM and the GI50 [38] was 4.75 µM. For the same compound, the TGI [38] was > 100 µM, the GI50 [39] was 3.78 µM and the TGI [39] was > 100 µM. For the same compound, the GI50 [40] was 3.78 µM, the TGI [40] was 43.9 µM and the GI50 [41] was 3.02 µM. For the same compound, the TGI [41] was > 100 µM, the GI50 [42] was 3.57 µM and the TGI [42] was 13.2 µM. It also gave a GI50 [43] of 10.4 µM, a TGI [43] of 67.5 µM and a GI50 [44] of 1.91 µM. For the same compound, the TGI [44] was 5.4 µM, the GI50 [45] was > 100 µM and the TGI [45] was > 100 µM. The GI50 [46] was 4.15 µM, the TGI [46] was > 100 µM and the GI50 [47] was 3.03 µM. The TGI [47] was 9.06 µM, the GI50 [48] was 4.52 µM and the TGI [48] was > 100 µM. The GI50 [49] was 15.6 µM, the TGI [49] was > 100 µM and the GI50 [50] was 5.61 µM. The TGI [50] was 34.5 µM, the GI50 [51] was 3.45 µM and the TGI [51] was > 100 µM. For the same compound, the GI50 [52] was 5.28 µM, the TGI [52] was > 100 µM and the GI50 [53] was 5.56 µM. For the same compound, the TGI [53] was > 100 µM, the GI50 [54] was 3.54 µM and the TGI [54] was 18.2 µM. For the same compound, the GI50 [55] was 3.84 µM, the TGI [55] was > 100 µM and the GI50 [56] was 4.26 µM. For the same compound, the TGI [56] was 93.2 µM, the GI50 [57] was 4.39 µM and the TGI [57] was > 100 µM.

From PubChem BioAssay (NCI)
